Measured values: publication PMC6803038 (Angewandte Chemie (International ed. in English), 2019)
Where no end group is shown, it is not given here. [ ]: non-standard residue; d: D form. Nle = CCCC[C@H](N)C(=O)O

T1: HDAC8 (UniProt Q9BY41 1-377)
T1 sequence (looked up): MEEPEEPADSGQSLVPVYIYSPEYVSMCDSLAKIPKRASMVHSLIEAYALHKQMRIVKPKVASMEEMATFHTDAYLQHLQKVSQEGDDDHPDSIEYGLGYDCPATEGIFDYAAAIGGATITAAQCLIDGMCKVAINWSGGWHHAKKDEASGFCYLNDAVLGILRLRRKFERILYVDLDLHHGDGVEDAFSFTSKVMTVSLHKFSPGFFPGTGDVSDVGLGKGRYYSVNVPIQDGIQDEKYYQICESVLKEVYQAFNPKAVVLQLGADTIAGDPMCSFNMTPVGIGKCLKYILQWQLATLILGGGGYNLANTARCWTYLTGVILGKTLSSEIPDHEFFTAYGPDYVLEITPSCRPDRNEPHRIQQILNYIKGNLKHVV


Columns and labels:
[1] = physiological conditions; cited from earlier work
TEV protease = TEV protease (Tobacco etch virus, UniProt P04517); experiment: Fluorescence polarization binding of 5-FAM-conjugated peptides to TEV protease; details: cyclic vs linear counterpart
TEV protease, sequence (P04517 2038-2279): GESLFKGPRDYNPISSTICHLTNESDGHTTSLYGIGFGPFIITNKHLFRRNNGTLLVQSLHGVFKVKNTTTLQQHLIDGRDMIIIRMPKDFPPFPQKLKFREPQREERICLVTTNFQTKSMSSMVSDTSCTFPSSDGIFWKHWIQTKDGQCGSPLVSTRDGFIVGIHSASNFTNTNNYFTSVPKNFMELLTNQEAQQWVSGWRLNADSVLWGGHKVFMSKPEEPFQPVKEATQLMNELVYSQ

HDAC8 = target: T1, HDAC8; experiment: fluorescence polarisation

| Kd (HDAC8) | Molecule | better binding of cyclic peptide than its linear counterpart (TEV protease) | also measured |
| --- | --- | --- | --- |
| – | C=CC(=O)NCCCC[C@H](N)C(=O)O [AcrK, N^ε-acryloyl-lysine] | – | second-order rate constant of reaction with a thiol [1]: 0.004 M⁻¹ s⁻¹ |
| – | CC[C@H](C)[C@@H]1NC(=O)[C@H](CC(C)C)NC(=O)[C@H](Cc2ccc(O)cc2)NC(=O)[C@H](CC(=O)O)NC(=O)[C@H](CCCNC(=N)N)NC(=O)[C@H](Cc2c[nH]c3ccccc23)NC(=O)[C@@H](N)CSCCC(=O)NCCCC[C@@H](C(=O)O)NC1=O [CycTev1, CWRDYLIX] | > 6 fold | – |
| – | N=C(N)NCCC[C@@H]1NC(=O)[C@H](Cc2c[nH]cn2)NC(=O)[C@H](CO)NC(=O)[C@H](Cc2ccccc2)NC(=O)[C@H](Cc2c[nH]c3ccccc23)NC(=O)[C@H](CCC(N)=O)NC(=O)[C@@H](N)CSCCC(=O)NCCCC[C@@H](C(=O)O)NC1=O [CycTev2, CQWFSHRX] | > 6 fold | – |
| 31 ± 7 µM | CQSLWMN[Nle] (also: 5-FAM conjugated, site not given here) [5-FAM-conjugated LinH8a’] | – | – |
| > 50 µM | CQSLWMNK (also: 5-FAM conjugated, site not given here) [5-FAM-conjugated LinH8a] | – | – |
